Results from the supplement of paper PMC10307832.

How the values were obtained:
Assay in all cases: relative viability (nuclei count vs DMSO), 5 days (fraction); higher = more cells survive
ABC-1 = system: ABC-1
Summary of the method: (§1)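 Medians of duplicate plates are given as relative viability. That measure is the nuclei count in treated wells divided by the count in vehicle wells. Counts were taken on 4× images of lung cancer cell lines in 1536-well plates, 5 days after pin-tool dosing the day after seeding with one drug alone or a fixed anchor-drug dose plus five library-drug doses (not always all listed) in √10 steps.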

NCI-H1975 = system: NCI-H1975
Summary of the method: as §1

NCI-H3122 = system: NCI-H3122
Summary of the method: as §1

CAL-12T = system: CAL-12T
Summary of the method: as §1

NCI-H1755 = system: NCI-H1755
Summary of the method: as §1

LXF-289 = system: LXF-289
Summary of the method: as §1

NCI-H441 = system: NCI-H441
Summary of the method: as §1

NCI-H2126 = system: NCI-H2126
Summary of the method: as §1

NCI-H1666 = system: NCI-H1666
Summary of the method: as §1

COR-L 105 = system: COR-L 105
Summary of the method: as §1

EMC-BAC-2 = system: EMC-BAC-2
Summary of the method: as §1

NCI-H2023 = system: NCI-H2023
Summary of the method: as §1

ChaGo-K-1 = system: ChaGo-K-1
Summary of the method: as §1

NCI-H2085 = system: NCI-H2085
Summary of the method: as §1

EPLC-272H = system: EPLC-272H
Summary of the method: as §1

UMC-11 = system: UMC-11
Summary of the method: as §1

NCI-H322M = system: NCI-H322M
Summary of the method: as §1

NCI-H1915 = system: NCI-H1915
Summary of the method: as §1

HCC-78 = system: HCC-78
Summary of the method: as §1

HOP-62 = system: HOP-62
Summary of the method: as §1

HCC-15 = system: HCC-15
Summary of the method: as §1

## CC(=O)O[C@@]12CO[C@@H]1C[C@H](O)[C@@]1(C)C(=O)[C@H](O)C3=C(C)[C@@H](OC(=O)[C@H](O)[C@@H](NC(=O)OC(C)(C)C)c4ccccc4)C[C@@](O)([C@@H](OC(=O)c4ccccc4)[C@H]21)C3(C)C [Docetaxel] + CC(C)C[C@H](NC(=O)[C@H](Cc1ccccc1)NC(=O)c1cnccn1)B(O)O [Bortezomib] (partner 0.002 µM)
ABC-1; first compound 0.0002 µM
  relative viability: 0.298
ABC-1; first compound 0.000632 µM
  relative viability: 0.334
ABC-1; first compound 0.002 µM
  relative viability: 0.306
ABC-1; first compound 0.006325 µM
  relative viability: 0.247
ABC-1; first compound 0.02 µM
  relative viability: 0.278
NCI-H1975; first compound 0.0002 µM
  relative viability: 0.366
NCI-H1975; first compound 0.000632 µM
  relative viability: 0.246
NCI-H1975; first compound 0.002 µM
  relative viability: 0.166
NCI-H1975; first compound 0.006325 µM
  relative viability: 0.15
NCI-H1975; first compound 0.02 µM
  relative viability: 0.141
NCI-H3122; first compound 0.0002 µM
  relative viability: 1.04
NCI-H3122; first compound 0.000632 µM
  relative viability: 0.907
NCI-H3122; first compound 0.002 µM
  relative viability: 0.864
NCI-H3122; first compound 0.006325 µM
  relative viability: 0.368
NCI-H3122; first compound 0.02 µM
  relative viability: 0.227
CAL-12T; first compound 0.0002 µM
  relative viability: 0.822
CAL-12T; first compound 0.000632 µM
  relative viability: 0.404
CAL-12T; first compound 0.002 µM
  relative viability: 0.348
CAL-12T; first compound 0.006325 µM
  relative viability: 0.271
CAL-12T; first compound 0.02 µM
  relative viability: 0.148
NCI-H1755; first compound 0.0002 µM
  relative viability: 0.984
NCI-H1755; first compound 0.000632 µM
  relative viability: 0.743
NCI-H1755; first compound 0.002 µM
  relative viability: 0.45
NCI-H1755; first compound 0.006325 µM
  relative viability: 0.368
NCI-H1755; first compound 0.02 µM
  relative viability: 0.315
LXF-289; first compound 0.0002 µM
  relative viability: 0.995
LXF-289; first compound 0.000632 µM
  relative viability: 0.81
LXF-289; first compound 0.002 µM
  relative viability: 0.594
LXF-289; first compound 0.006325 µM
  relative viability: 0.133
LXF-289; first compound 0.02 µM
  relative viability: 0.0991
NCI-H441; first compound 0.0002 µM
  relative viability: 0.449
NCI-H441; first compound 0.000632 µM
  relative viability: 0.276
NCI-H441; first compound 0.002 µM
  relative viability: 0.208
NCI-H441; first compound 0.006325 µM
  relative viability: 0.188
NCI-H441; first compound 0.02 µM
  relative viability: 0.179
NCI-H2126; first compound 0.0002 µM
  relative viability: 1.12
NCI-H2126; first compound 0.000632 µM
  relative viability: 1.09
NCI-H2126; first compound 0.002 µM
  relative viability: 1.04
NCI-H2126; first compound 0.006325 µM
  relative viability: 0.427
NCI-H2126; first compound 0.02 µM
  relative viability: 0.288
NCI-H1666; first compound 0.0002 µM
  relative viability: 0.582
NCI-H1666; first compound 0.000632 µM
  relative viability: 0.452
NCI-H1666; first compound 0.002 µM
  relative viability: 0.378
NCI-H1666; first compound 0.006325 µM
  relative viability: 0.249
NCI-H1666; first compound 0.02 µM
  relative viability: 0.205
COR-L 105; first compound 0.0002 µM
  relative viability: 0.734
COR-L 105; first compound 0.000632 µM
  relative viability: 0.595
COR-L 105; first compound 0.002 µM
  relative viability: 0.423
COR-L 105; first compound 0.006325 µM
  relative viability: 0.304
COR-L 105; first compound 0.02 µM
  relative viability: 0.229
EMC-BAC-2; first compound 0.0002 µM
  relative viability: 0.963
EMC-BAC-2; first compound 0.000632 µM
  relative viability: 0.875
EMC-BAC-2; first compound 0.002 µM
  relative viability: 0.573
EMC-BAC-2; first compound 0.006325 µM
  relative viability: 0.306
EMC-BAC-2; first compound 0.02 µM
  relative viability: 0.206
NCI-H2023; first compound 0.0002 µM
  relative viability: 0.89
NCI-H2023; first compound 0.000632 µM
  relative viability: 0.456
NCI-H2023; first compound 0.002 µM
  relative viability: 0.134
NCI-H2023; first compound 0.006325 µM
  relative viability: 0.101
NCI-H2023; first compound 0.02 µM
  relative viability: 0.0677
ChaGo-K-1; first compound 0.0002 µM
  relative viability: 1
ChaGo-K-1; first compound 0.000632 µM
  relative viability: 0.542
ChaGo-K-1; first compound 0.002 µM
  relative viability: 0.487
ChaGo-K-1; first compound 0.006325 µM
  relative viability: 0.419
ChaGo-K-1; first compound 0.02 µM
  relative viability: 0.267
NCI-H2085; first compound 0.0002 µM
  relative viability: 0.882
NCI-H2085; first compound 0.000632 µM
  relative viability: 1.06
NCI-H2085; first compound 0.002 µM
  relative viability: 0.718
NCI-H2085; first compound 0.006325 µM
  relative viability: 0.54
NCI-H2085; first compound 0.02 µM
  relative viability: 0.46
EPLC-272H; first compound 0.0002 µM
  relative viability: 0.761
EPLC-272H; first compound 0.000632 µM
  relative viability: 0.506
EPLC-272H; first compound 0.002 µM
  relative viability: 0.209
EPLC-272H; first compound 0.006325 µM
  relative viability: 0.168
EPLC-272H; first compound 0.02 µM
  relative viability: 0.0779
UMC-11; first compound 0.0002 µM
  relative viability: 0.747
UMC-11; first compound 0.000632 µM
  relative viability: 0.763
UMC-11; first compound 0.002 µM
  relative viability: 0.162
UMC-11; first compound 0.006325 µM
  relative viability: 0.197
UMC-11; first compound 0.02 µM
  relative viability: 0.128
NCI-H322M; first compound 0.0002 µM
  relative viability: 1.11
NCI-H322M; first compound 0.000632 µM
  relative viability: 1.22
NCI-H322M; first compound 0.002 µM
  relative viability: 1.05
NCI-H322M; first compound 0.006325 µM
  relative viability: 0.602
NCI-H322M; first compound 0.02 µM
  relative viability: 0.469
NCI-H1915; first compound 0.0002 µM
  relative viability: 0.905
NCI-H1915; first compound 0.000632 µM
  relative viability: 0.95
NCI-H1915; first compound 0.002 µM
  relative viability: 0.577
NCI-H1915; first compound 0.006325 µM
  relative viability: 0.147
NCI-H1915; first compound 0.02 µM
  relative viability: 0.116
HCC-78; first compound 0.0002 µM
  relative viability: 0.581
HCC-78; first compound 0.000632 µM
  relative viability: 0.524
HCC-78; first compound 0.002 µM
  relative viability: 0.326
HCC-78; first compound 0.006325 µM
  relative viability: 0.487
HCC-78; first compound 0.02 µM
  relative viability: 0.27
HOP-62; first compound 0.0002 µM
  relative viability: 0.726
HOP-62; first compound 0.000632 µM
  relative viability: 0.828
HOP-62; first compound 0.02 µM
  relative viability: 0.128
HCC-15; first compound 0.0002 µM
  relative viability: 0.807
HCC-15; first compound 0.000632 µM
  relative viability: 0.78
HCC-15; first compound 0.002 µM
  relative viability: 0.231
HCC-15; first compound 0.006325 µM
  relative viability: 0.216
HCC-15; first compound 0.02 µM
  relative viability: 0.157
